# System: p-IKKa levels in L363 (NIK translocated multiple myeloma) cells
# Test: Assay 2: Effect of compounds on p-IKKa levels in L363 (NIK translocated multiple myeloma) cells
# Type: cell-based
# Conditions: Homo sapiens, L-363, 6 h, read-out: Assay 2 IC50 (nM), p-IKKa (Ser 176/180) in BAFF stimulated L363 cells with MG132, 6 h; average if tested more than once
# Outline: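 L363 cells incubated overnight ± 250 ng/ml BAFF, then 6 h at 37 °C with compound (0.3% DMSO) ± 10 μM MG132. Lysates assayed for p-IKKa (Ser176/180) by AlphaLISA SureFire. IC50 from sigmoidal fit of % inhibition normalized to BAFF/MG132-stimulated and unstimulated controls.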
row,Structure (SMILES),IC50
1,"Cc1cccc(Nc2nccc(-c3cccc(-c4cc([C@]5(O)CCN(C)C5=O)on4)n3)n2)n1 [Example 244, (R)-3-Hydroxy-1-methyl-3-(3-(6-(2-((6-methylpyridin-2-yl)amino)pyrimidin-4-yl)pyridin-2-yl)isoxazol-5-yl)pyrrolidin-2-one]",50 to 500 nM
2,"CN1CC[C@@](O)(c2cc(-c3cccc(-c4ccnc(Nc5cnn6c5OCCC6)n4)n3)no2)C1=O [Example 194, (R)-3-(3-(6-(2-((6,7-Dihydro-5H-pyrazolo[5,1-b][1,3]oxazin-3-yl)amino)pyrimidin-4-yl)pyridin-2-yl)isoxazol-5-yl)-3-hydroxy-1-methylpyrrolidin-2-one]",< 50 nM
3,"CN1CC(F)(F)[C@@](O)(c2cc(-c3cccc(-c4ccnc(Nc5cnn(C)c5)n4)n3)no2)C1=O [Example 3, (R)-4,4-Difluoro-3-hydroxy-1-methyl-3-(3-(6-(2-((1-methyl-1H-pyrazol-4-yl)amino)pyrimidin-4-yl)pyridin-2-yl)isoxazol-5-yl)pyrrolidin-2-one]",< 50 nM
4,"CN1CC(F)(F)[C@@](O)(c2cc(-c3cncc(-c4ccnc(Nc5ccn(C)n5)n4)n3)no2)C1=O [Example 94, (R)-4,4-Difluoro-3-hydroxy-1-methyl-3-(3-(6-(2-((1-methyl-1H-pyrazol-3-yl)amino)pyrimidin-4-yl)pyrazin-2-yl)isoxazol-5-yl)pyrrolidin-2-one]",50 to 500 nM
5,"CN1CC[C@@](O)(c2cc(-c3cccc(-c4ccnc(N[C@@H]5COC[C@@H]5F)n4)n3)no2)C1=O [Example 339, (R)-3-(3-(6-(2-(((cis)-4-Fluorotetrahydrofuran-3-yl)amino)pyrimidin-4-yl)pyridin-2-yl)isoxazol-5-yl)-3-hydroxy-1-methylpyrrolidin-2-one]",50 to 500 nM
6,"CN1CC[C@@](O)(c2cc(-c3cccc(-c4ccnc(Nc5cc(CN6CCOCC6)n(C)n5)n4)n3)no2)C1=O [Example 434, (R)-3-Hydroxy-1-methyl-3-(3-(6-(2-((1-methyl-5-(morpholinomethyl)-1H-pyrazol-3-yl)amino)pyrimidin-4-yl)pyridin-2-yl)isoxazol-5-yl)pyrrolidin-2-one]",50 to 500 nM
7,"CN1CC[C@@](O)(c2cn(-c3cccc(-c4ccnc(Nc5cn(C)nc5F)n4)n3)nn2)C1=O [Example 325, (R)-3-(1-(6-(2-((3-Fluoro-1-methyl-1H-pyrazol-4-yl)amino)pyrimidin-4-yl)pyridin-2-yl)-1H-1,2,3-triazol-4-yl)-3-hydroxy-1-methylpyrrolidin-2-one]",50 to 500 nM
8,"CO[C@@H]1CCC[C@H](Nc2nccc(-c3cccc(-c4cc([C@]5(O)CCN(C)C5=O)on4)n3)n2)C1 [Example 449, (R)-3-Hydroxy-3-(3-(6-(2-(((1S,3R)-3-methoxycyclohexyl)amino)pyrimidin-4-yl)pyridin-2-yl)isoxazol-5-yl)-1-methylpyrrolidin-2-one]",50 to 500 nM
9,"CN1CC[C@@](O)(c2cc(-c3cccc(-c4ccnc(Nc5ccn(C)n5)n4)n3)n(C)n2)C1=O (single isomer, unassigned) [Example 166, (*R)-3-Hydroxy-1-methyl-3-(1-methyl-5-(6-(2-((1-methyl-1H-pyrazol-3-yl)amino)pyrimidin-4-yl)pyridin-2-yl)-1H-pyrazol-3-yl)pyrrolidin-2-one]",> 500 nM
10,"CN1CC[C@@](O)(c2cc(-c3cccc(-c4ccnc(Nc5cc6n(n5)CCN(CC(F)(F)F)C6)n4)n3)no2)C1=O [Example 431, (R)-3-Hydroxy-1-methyl-3-(3-(6-(2-((5-(2,2,2-trifluoroethyl)-4,5,6,7-tetrahydropyrazolo[1,5-a]pyrazin-2-yl)amino)pyrimidin-4-yl)pyridin-2-yl)isoxazol-5-yl)pyrrolidin-2-one]",50 to 500 nM
11,"CN1CC[C@@](O)(c2cc(-c3cccc(-c4ccnc(Nc5cnn(CC(F)F)c5)n4)n3)no2)C1=O [Example 56, (R)-3-(3-(6-(2-((1-(2,2-Difluoroethyl)-1H-pyrazol-4-yl)amino)pyrimidin-4-yl)pyridin-2-yl)isoxazol-5-yl)-3-hydroxy-1-methylpyrrolidin-2-one]",< 50 nM
